In paper PMC7072517 (Biomolecules, 2020):
Each block holds one compound with its values, some of them ahead of it.

Assays:
[1] = biological target: T1, soluble epoxide hydrolase (sEH) (Homo sapiens, UniProt P34913); details: cited from earlier work
T1 construct: purchased Cayman (Ann Arbor, MI, USA) 10011669
T1 sequence (P34913 1-555): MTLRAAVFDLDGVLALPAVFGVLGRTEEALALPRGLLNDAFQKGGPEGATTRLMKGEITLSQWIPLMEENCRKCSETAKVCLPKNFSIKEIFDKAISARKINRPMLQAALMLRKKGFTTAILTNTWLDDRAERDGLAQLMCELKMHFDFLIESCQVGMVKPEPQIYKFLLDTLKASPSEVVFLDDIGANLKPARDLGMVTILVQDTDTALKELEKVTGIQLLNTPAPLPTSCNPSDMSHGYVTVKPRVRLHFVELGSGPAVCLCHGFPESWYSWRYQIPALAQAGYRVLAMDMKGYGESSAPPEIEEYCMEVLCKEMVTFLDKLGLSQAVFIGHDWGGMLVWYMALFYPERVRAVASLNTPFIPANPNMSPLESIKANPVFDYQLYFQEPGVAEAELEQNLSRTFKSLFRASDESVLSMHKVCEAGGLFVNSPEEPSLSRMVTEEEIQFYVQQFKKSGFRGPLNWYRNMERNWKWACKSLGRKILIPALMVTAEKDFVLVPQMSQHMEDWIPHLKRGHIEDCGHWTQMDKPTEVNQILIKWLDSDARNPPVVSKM

[2] = biological target: T1, soluble epoxide hydrolase (sEH); assay: sEH enzyme kinetics (Lineweaver–Burk and Dixon plots); type: biochemical; details: for Binding Mode (inhibition type): Lineweaver–Burk plot, substrate 1–12.5 µM
Protocol: (§1) sEH (130 µL, ~16 ng/mL) in 25 mM bis-Tris-HCl buffer (pH 7.0) containing 0.1% BSA and 20 µL of compound in MeOH was mixed in a 96-well plate, followed by the addition of 50 µL buffer containing 5 µM PHOME. The reactions were carried out at 37°C for 40 min. The inhibitory ratio was calculated according to the following equations: Inhibitory activityrate (%) = [[…]] × 100(1) where ΔC andΔS represent the intensity of control and inhibitor after 40 min, respectively. y = y0 + [(a × x)/(b + x)](2) where y0 is the minimum value on the y-axis, a denotes the difference between maximum and minimum values, and b refers to the x value at 50%.
The inverse of these concentrations and v0 values were used for the Lineweaver–Burk plot. […] Furthermore, the Dixon plot is represented by the modified Lineweaver–Burk plot.

[3] = biological target: T1, soluble epoxide hydrolase (sEH); assay: sEH inhibition assay (PHOME substrate, fluorescence); type: biochemical; details: 5 µM PHOME, 37°C, 40 min, pH 7.0; n = 3; read-out: IC50, inhibitory activity on sEH (converted)
Protocol: as §1, with “The” for “sEH (130 µL, ~16 ng/mL) in 25 mM bis-Tris-HCl buffer (pH 7.0) containing 0.1% BSA and 20 µL of compound in MeOH was mixed in a 96-well plate, followed by the addition of 50 µL buffer containing 5 µM PHOME. The”

[4] = parameters: method as in PMID 19794443; details: cited from earlier work

Structure (SMILES): O=c1c(O)c(-c2ccc(O)cc2)oc2cc(O)cc(O)c12 [kaempferol]
inhibition type on sEH [1]: non-competitive

Structure (SMILES): COc1cc(O)c2c(=O)c(OC)c(-c3ccc(O[C@@H]4O[C@H](CO)[C@@H](O)[C@H](O)[C@H]4O[C@@H]4OCC(O)(CO)[C@H]4O)c(OC)c3)oc2c1 (stereo partly drawn) [3,7,3′-tri-O-methylquercetin-4′-O-β-D-apiofuranosyl-(1→2)-O-β-D-glucopyranoside]
inhibition type on sEH [1]: non-competitive

Binding Mode (inhibition type) [2]: Non-competitive type
Structure (SMILES): COc1cc(-c2cc(=O)c3c(O)cc(O)cc3o2)ccc1O [compound 1, chrysoeriol]

IC50 [3]: 32.1 µM | Ki ([2]; Dixon plot): 26.5 µM | Binding Mode (inhibition type) [2]: Non-competitive type
Structure (SMILES): O=c1cc(-c2ccc(O)c(O)c2)oc2cc(O[C@@H]3O[C@H](CO)[C@@H](O)[C@H](O)[C@H]3O)cc(O)c12 [compound 2, luteolin-7-O-glucopyranoside]

Structure (SMILES): O=c1c(O[C@@H]2O[C@H](CO)[C@H](O)[C@H](O)[C@H]2O)c(-c2ccc(O)c(O)c2)oc2cc(O)cc(O)c12 [quercetin-3-O-β-D-galactoside]
inhibition type on sEH [1]: non-competitive

Structure (SMILES): O=c1cc(-c2ccc(O)cc2)oc2cc(O)cc(O)c12 [apigenin]
inhibition type on sEH [1]: non-competitive

Structure (SMILES): O=C(O)CCCCCCCCCCCNC(=O)NC12CC3CC(CC(C3)C1)C2 [AUDA, 12-(3-adamantan-1-yl-ureido)dodecanoic acid]
solubility [4]: low
